# In PubChem BioAssay (NCI):
#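 The compound was tested at five concentrations on cells cultured in 96-well plates, with a 48-hour exposure period. At the TGI there is no net growth.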
# Columns and labels:
# Experiment in all cases: DTP human tumour cell line panel, 48 h
# [1] = test system: 786-0 renal
# [2] = test system: A498 renal
# [3] = test system: A549 NSCLC
# [4] = test system: ACHN renal
# [5] = test system: BT-549 breast
# [6] = test system: CAKI-1 renal
# [7] = test system: CCRF-CEM leukemia
# [8] = test system: COLO 205 colon
# [9] = test system: DU-145 prostate
# [10] = test system: EKVX NSCLC
# [11] = test system: HCC-2998 colon
# [12] = test system: HCT-116 colon
# [13] = test system: HCT-15 colon
# [14] = test system: HL-60(TB) leukemia
# [15] = test system: HOP-62 NSCLC
# [16] = test system: HS 578T breast
# [17] = test system: HT29 colon
# [18] = test system: IGROV1 ovarian
# [19] = test system: K-562 leukemia
# [20] = test system: KM12 colon
# [21] = test system: LOX IMVI melanoma
# [22] = test system: M14 melanoma
# [23] = test system: MALME-3M melanoma
# [24] = test system: MCF7 breast
# [25] = test system: MDA-MB-231 breast
# [26] = test system: MDA-MB-435
# [27] = test system: MDA-N
# [28] = test system: MOLT-4 leukemia
# [29] = test system: NCI-H226 lung
# [30] = test system: NCI-H23 lung
# [31] = test system: NCI-H460 lung
# [32] = test system: NCI-H522 lung
# [33] = test system: NCI/ADR-RES ovarian
# [34] = test system: OVCAR-3 ovarian
# [35] = test system: OVCAR-5 ovarian
# [36] = test system: OVCAR-8 ovarian
# [37] = test system: PC-3 prostate
# [38] = test system: RPMI-8226 leukemia
# [39] = test system: SF-268 CNS
# [40] = test system: SF-295 CNS
# [41] = test system: SF-539 CNS
# [42] = test system: SK-MEL-2 melanoma
# [43] = test system: SK-MEL-28 melanoma
# [44] = test system: SK-MEL-5 melanoma
# [45] = test system: SK-OV-3 ovarian
# [46] = test system: SNB-19 CNS
# [47] = test system: SNB-75 CNS
# [48] = test system: SR leukemia
# [49] = test system: SW-620 colon
# [50] = test system: T-47D breast
# [51] = test system: TK-10 renal
# [52] = test system: U251 CNS
# [53] = test system: UACC-257 melanoma
# [54] = test system: UACC-62 melanoma
# [55] = test system: UO-31 renal
# [56] = test system: HOP-92 NSCLC
# [57] = test system: OVCAR-4 ovarian
# [58] = test system: RXF 393 renal
# [59] = test system: SN12C renal
smiles,measurement,setting,value
C=C(C)C(=O)OC1C[C@H](COC(C)=O)C2CC=C(CO)C2C2OC(=O)C(=C)[C@H]12 (stereo partly drawn),TGI,[1],97.1 µM
same,TGI,[2],> 100 µM
same,TGI,[3],> 100 µM
same,TGI,[4],> 100 µM
same,TGI,[5],> 100 µM
same,TGI,[6],> 100 µM
same,TGI,[7],31.5 µM
same,TGI,[8],30 µM
same,TGI,[9],> 100 µM
same,TGI,[10],> 100 µM
same,TGI,[11],> 100 µM
same,TGI,[12],38.2 µM
same,TGI,[13],> 100 µM
same,TGI,[14],76 µM
same,TGI,[15],> 100 µM
same,TGI,[16],> 100 µM
same,TGI,[17],> 100 µM
same,TGI,[18],> 100 µM
same,TGI,[19],54.4 µM
same,TGI,[20],> 100 µM
same,TGI,[21],> 100 µM
same,TGI,[22],31 µM
same,TGI,[23],44.3 µM
same,TGI,[24],> 100 µM
same,TGI,[25],> 100 µM
same,TGI,[26],> 100 µM
same,TGI,[27],> 100 µM
same,TGI,[28],45.7 µM
same,TGI,[29],> 100 µM
same,TGI,[30],> 100 µM
same,TGI,[31],> 100 µM
same,TGI,[32],33.8 µM
same,TGI,[33],> 100 µM
same,TGI,[34],> 100 µM
same,TGI,[35],> 100 µM
same,TGI,[36],> 100 µM
same,TGI,[37],> 100 µM
same,TGI,[38],> 100 µM
same,TGI,[39],60.2 µM
same,TGI,[40],> 100 µM
same,TGI,[41],> 100 µM
same,TGI,[42],> 100 µM
same,TGI,[43],> 100 µM
same,TGI,[44],> 100 µM
same,TGI,[45],> 100 µM
same,TGI,[46],> 100 µM
same,TGI,[47],> 100 µM
same,TGI,[48],65.2 µM
same,TGI,[49],40 µM
same,TGI,[50],> 100 µM
same,TGI,[51],> 100 µM
same,TGI,[52],> 100 µM
same,TGI,[53],> 100 µM
same,TGI,[54],> 100 µM
same,TGI,[55],> 100 µM
Cc1cc(C)nc(NS(=O)(=O)c2ccc(NC(=O)c3cc([N+](=O)[O-])cc([N+](=O)[O-])c3)cc2)n1,TGI,[1],> 100 µM
same,TGI,[2],> 100 µM
same,TGI,[3],> 100 µM
same,TGI,[5],> 100 µM
same,TGI,[6],> 100 µM
same,TGI,[7],> 100 µM
same,TGI,[8],45.7 µM
same,TGI,[9],> 100 µM
same,TGI,[12],> 100 µM
same,TGI,[13],> 100 µM
same,TGI,[14],> 100 µM
same,TGI,[15],> 100 µM
same,TGI,[56],> 100 µM
same,TGI,[16],> 100 µM
same,TGI,[17],> 100 µM
same,TGI,[18],> 100 µM
same,TGI,[19],> 100 µM
same,TGI,[20],> 100 µM
same,TGI,[21],> 100 µM
same,TGI,[22],> 100 µM
same,TGI,[23],> 100 µM
same,TGI,[24],> 100 µM
same,TGI,[25],> 100 µM
same,TGI,[26],> 100 µM
same,TGI,[27],> 100 µM
same,TGI,[28],13.5 µM
same,TGI,[29],> 100 µM
same,TGI,[30],> 100 µM
same,TGI,[31],> 100 µM
same,TGI,[33],> 100 µM
same,TGI,[34],98.4 µM
same,TGI,[57],> 100 µM
same,TGI,[36],> 100 µM
same,TGI,[37],> 100 µM
same,TGI,[38],> 100 µM
same,TGI,[58],> 100 µM
same,TGI,[39],> 100 µM
same,TGI,[41],> 100 µM
same,TGI,[42],> 100 µM
same,TGI,[43],> 100 µM
same,TGI,[44],> 100 µM
same,TGI,[45],> 100 µM
same,TGI,[59],> 100 µM
same,TGI,[46],> 100 µM
same,TGI,[47],> 100 µM
same,TGI,[48],14.7 µM
same,TGI,[49],> 100 µM
same,TGI,[50],> 100 µM
same,TGI,[51],> 100 µM
same,TGI,[52],> 100 µM
same,TGI,[53],> 100 µM
same,TGI,[54],> 100 µM
same,TGI,[55],> 100 µM
